Measured values published in US8389511B2, “Bicyclic heterocyclic derivative” (Dainippon Sumitomo Pharma Co., Ltd., priority 2007, dated 2013).
Counter-ions that a name gives are not always drawn.

Target: T1, Recombinant human renin (Homo sapiens, UniProt P00797)
T1 sequence (P00797 67-406): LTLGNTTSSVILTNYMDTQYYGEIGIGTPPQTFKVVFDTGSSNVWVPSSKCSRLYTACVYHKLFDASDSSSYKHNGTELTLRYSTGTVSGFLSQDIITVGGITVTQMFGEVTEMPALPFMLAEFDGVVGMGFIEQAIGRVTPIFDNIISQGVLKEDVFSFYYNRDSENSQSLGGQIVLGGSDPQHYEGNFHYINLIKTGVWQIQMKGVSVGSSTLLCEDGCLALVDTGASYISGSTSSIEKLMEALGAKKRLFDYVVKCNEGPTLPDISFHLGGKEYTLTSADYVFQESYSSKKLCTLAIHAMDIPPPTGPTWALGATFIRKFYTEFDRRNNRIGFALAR
Assay: In vitro renin inhibitory activity assay (fluorescence, EDANS/DABCYL peptide substrate)
Type: biochemical
Conditions: recombinant human renin (50 ng), 0.1M HEPES buffer pH 7.4, substrate 4 μM, 37° C., one hour, fluorescence 340/500 nm
Protocol: In Vitro Renin Inhibitory Activity Assay
Recombinant human renin (50 ng) was reacted in 0.1M HEPES buffer (pH 7.4) containing 0.1M NaCl, 1 mM EDTA and 0.1 mg/mL BSA together with a substrate and a test compound at 37° C. for one hour. As the substrate, Arg-Glu(EDANS)-[…]DABCYL)-Arg or DABCYL-γ-Abu-[…]EDANS was added in such an amount so that the final concentration thereof became 4 μM. The elevated fluorescence intensity at the exciting wavelength 340 nm and the fluorescence wavelength 500 nm was measured by a fluorescence plate reader.

Row | Compound | IC50 [nM]
1 | COCCCN1C(=O)C(C)(C)Oc2cc(Br)c(C(=O)N(C(C)C)[C@@H]3CCCNC3)cc21 [Example 1, 7-Bromo-N-isopropyl-4-(3-methoxypropyl)-2,2-dimethyl-3-oxo-N-[(3R)-piperidin-3-yl]-3,4-dihydro-2H-1,4-benzoxazine-6-carboxamide hydrochloride] | 0.7
2 | COCCCN1C(=O)[C@@H](C)Oc2cc(C)c(C(=O)N(C(C)C)[C@@H]3CCCNC3)cc21 [Example 18] | 11
3 | COC(=O)NCCN1C(=O)[C@](C)(c2cc(F)cc(F)c2)Oc2cc(Cl)c(C(=O)N(C(C)C)[C@@H]3CCCNC3)cc21 [Example 30] | 0.8
4 | COC(=O)NCCN1C(=O)[C@](C)(c2cc(F)cc(F)c2)Oc2cc(Br)c(C(=O)N(C(C)C)[C@@H]3CCCNC3)cc21 [Example 36] | 0.2
5 | COCCCCN1C(=O)C2(CCOCC2)Oc2cc(C)c(C(=O)N(C(C)C)[C@@H]3CCCNC3)cc21 [Example 48] | 8.4
6 | COCCCCN1C(=O)[C@@H](C)Oc2cc(C(F)(F)F)c(C(=O)N(C(C)C)[C@@H]3CCCNC3)cc21 [Example 66] | 0.7
7 | CCc1cc2c(cc1C(=O)N(C(C)C)[C@@H]1CCCNC1)N(CCCCOC)C(=O)C(C)(C)O2 [Example 79] | 19.2
8 | CCc1cc2c(cc1C(=O)N(C(C)C)[C@@H]1CCCNC1)N(CCNC(=O)OC)C(=O)C(C)(C)O2 [Example 80] | 4.6
9 | COCCCCN1C(=O)C(C)(C)Oc2cc(C#N)c(C(=O)N(C(C)C)[C@@H]3CCCNC3)cc21 [Example 162] | 4
10 | COCCCCN1C(=O)C(C)(C)Oc2cc(C(F)(F)F)c(C(=O)N(C(C)C)C3CCNC3)cc21 (centres unmarked) [Example 201, N-Isopropyl-4-(4-methoxybutyl)-2,2-dimethyl-3-oxo-N-pyrrolidine-3-yl-7-(trifluoromethyl)-3,4-dihydro-2H-1,4-benzoxazine-6-carboxamide hydrochloride] | 82
11 | CCC(=O)NCCN1C(=O)C(C)(C)Oc2cc(C(F)(F)F)c(C(=O)N(C3CCC3)[C@@H]3CCCNC3)cc21 [Example 202] | 1.3
12 | COCCCCN1C(=O)C(C2CCOCC2)Oc2cc(C(F)(F)F)c(C(=O)N(C(C)C)C3CCCNC3)cc21 (centres unmarked) [Example 205] | 17.4
13 | COC(=O)NCCN1C(=O)C(C)(COc2ccccc2)Oc2cc(C(F)(F)F)c(C(=O)N(C(C)C)C3CCCNC3)cc21 (centres unmarked) [Example 209] | 2
14 | COC(=O)NCCN1C(=O)C(C)(COc2cccc(OC)c2)Oc2cc(C(F)(F)F)c(C(=O)N(C(C)C)C3CCCNC3)cc21 (centres unmarked) [Example 210] | 1.2
15 | COCCCCN1C(=O)C(C)(COCCOC)Oc2cc(C(F)(F)F)c(C(=O)N(C(C)C)C3CCCNC3)cc21 (centres unmarked) [Example 212] | 1.7
16 | CCOC(=O)COCC1(C)Oc2cc(C(F)(F)F)c(C(=O)N(C(C)C)C3CCCNC3)cc2N(CCCCOC)C1=O (centres unmarked) [Example 216] | 1.1
17 | COCCCCN1C(=O)C(C)(CO)Oc2cc(C(F)(F)F)c(C(=O)N(C(C)C)C3CCCNC3)cc21 (centres unmarked) [Example 217] | 1.8
18 | CCC(=O)NCCN1C(=O)C(C)(c2cccc(C#N)c2)Oc2cc(C(F)(F)F)c(C(=O)N(C(C)C)C3CCCNC3)cc21 (centres unmarked) [Example 224] | 0.6
19 | CCC(=O)NCCN1C(=O)C(C)(c2cc(C#N)ccc2F)Oc2cc(C(F)(F)F)c(C(=O)N(C(C)C)C3CCCNC3)cc21 (centres unmarked) [Example 228] | 1.5
20 | CCC(=O)NCCN1C(=O)C(C)(c2cccc(OS(C)(=O)=O)c2)Oc2cc(C(F)(F)F)c(C(=O)N(C(C)C)C3CCCNC3)cc21 (centres unmarked) [Example 229] | 0.3
21 | CCC(=O)NCCN1C(=O)C(C)(C)Oc2cc(C(F)(F)F)c(C(=O)N(C(C)C)C3CNCCC3c3cccc(-c4ccccc4)c3)cc21 (centres unmarked) [Example 238] | 39
22 | CCC(=O)NCCN1C(=O)C(C)(C)Oc2cc(C(F)(F)F)c(C(=O)N(CC)C3CNCCC3c3ccccc3)cc21 (centres unmarked) [Example 243] | 2.2
23 | COCC(O)CCN1C(=O)C(C)(C)Oc2cc(C(F)(F)F)c(C(=O)N(C(C)C)C3CCCNC3)cc21 (centres unmarked) [Example 251] | 23.8
24 | COCC(=O)CCN1C(=O)C(C)(C)Oc2cc(C(F)(F)F)c(C(=O)N(C(C)C)C3CCCNC3)cc21 (centres unmarked) [Example 252] | 1.5
25 | COCCCCN1C(=O)C(C)(C)c2cc(Cl)c(C(=O)N(C(C)C)[C@@H]3CCCNC3)cc21 [Example 254, 5-Chloro-3,3-dimethyl-N-isopropyl-1-(4-methoxybutyl)-2-oxo-N-[(3R)-piperidin-3-yl] indoline-6-carboxamide hydrochloride] | 14
26 | CCC(=O)NCCN1C(=O)C(C)(C)c2cc(Cl)c(C(=O)N(C(C)C)[C@@H]3CCCNC3)cc21 [Example 255, 5-Chloro-N-isopropyl-3,3-dimethyl-2-oxo-N-[(3R)-piperidin-3-yl]-1-[2-(propionylamino)ethyl]-indoline-6-carboxamide hydrochloride] | 20
27 | CCn1c(=O)n(CCCCOC)c2cc(C(=O)N(C(C)C)[C@@H]3CCCNC3)c(C(F)(F)F)cc21 [Example 261] | 15
28 | CCC(=O)NCCn1c(=O)n(CC)c2cc(C(F)(F)F)c(C(=O)N(C(C)C)[C@@H]3CCCNC3)cc21 [Example 262] | 30
29 | CCC(=O)NCCN1C(=O)C(C)(C)Oc2cc(F)c(C(=O)N(CC)[C@H]3CNCC[C@@H]3c3cccc(OC)c3)cc21 [Example 265] | 2.2
